Test results from patent US20240344108A1, “GALACTOSE RAPID QUANTITATIVE DETECTION SYSTEM AND USE THEREOF” (Avalon HepaPOC Limited, priority 2018, published 2024).
Where two headings read alike, the source gives them in different places. Blank lines part the entries; values can stand above or below the compound they belong to.

Key:
galactose dehydrogenase [1] = target: T1, galactose dehydrogenase (Pseudomonas fluorescens, UniProt P11886); assay: Stabilizer analysis: linearity test of the galactose test strip system with different stabilizers; conditions: 0.05%, 2.5% and 5.5%
T1 construct: purchased
T1 sequence (P11886 1-304): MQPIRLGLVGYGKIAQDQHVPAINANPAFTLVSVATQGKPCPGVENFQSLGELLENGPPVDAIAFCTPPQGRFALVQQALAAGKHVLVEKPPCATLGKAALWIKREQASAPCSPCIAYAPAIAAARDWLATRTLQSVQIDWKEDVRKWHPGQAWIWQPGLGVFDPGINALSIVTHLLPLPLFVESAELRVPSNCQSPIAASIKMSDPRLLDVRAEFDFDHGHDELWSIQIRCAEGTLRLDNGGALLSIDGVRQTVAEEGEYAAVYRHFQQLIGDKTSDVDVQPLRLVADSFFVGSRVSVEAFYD
Protocol: Galactochek Blood Galactose Meters, the galactose rapid detection system (galactose dehydrogenase concentration: 13.39%) with different types of stabilizers and concentrations, and YSI 2900 Automatic analyzer.
All chemicals were purchased from Sigma-Aldrich (St. Louis, MO). A stock solution of galactose at 20 mg/mL was prepared with reverse osmosis water. The standard solutions are used to prepare different galactose concentration blood sample. The final concentration of galactose in blood were 200, 450, 800, 1150 and 1500 μg/mL.
Obtain the R^2 value of the linearity test result of different strip test groups to evaluate that which type of stabilizer and concentration were suitable to be used in the system. In addition, % CV≤20% at galactose concentration range of 200-250 μg/mL, and % CV≤15% at galactose concentration range of 251-1500 μg/mL.

galactose dehydrogenase [2] = target: T1, galactose dehydrogenase; assay: Electrochemical response after galactose dehydrogenase immobilization and drying onto the biosensor with protectant; conditions: protectant used as stabilizer during immobilization and drying
Source text: The electrochemistry-based biosensor is designed as a test strip of electrode containing a reaction zone where galactose within the blood sample is to react with galactose metabolic enzymes, leading to the generation of an electrochemical signal. Two galactose-catalyzing enzymes, galactose dehydrogenase (GD) and galactose oxidase (GO) capable of generating electrochemical information, were selected for embedded immobilization and drying onto the electrode to enable electrochemical signal production. […] However, GO catalyzes the oxidation of primary alcohols and sugars (including d-galactose and lactose) in the presence of oxygen, thus impacting the accuracy of quantitation. Aggravatingly, excessive oxygen can compete with the electron mediator of the oxidase-based amperometric strip for electrons, thus resulting in underestimation of galactose measurement. This poses a challenge in point-of-care (POC) scenarios where fresh whole blood sample, rich in oxygen due to prolonged exposure to the atmosphere, or from critically ill patients receiving oxygen support, are utilized.
Galactose dehydrogenase, on the other hand, catalyzes d-galactose with high specificity without the involvement of oxygen. The enzyme was therefore used to be immobilized and dried onto the biosensor. […]

clinical = conditions: human, in vivo
Source text: The user needs to drink the oral galactose composition first, wherein the content of the galactose is 1%-80%, preferably 4%-40%, by weight of the total galactose composition, wherein the buffer solution can be not added or can be added to the total weight of 0.001%-5%, and the antioxidant can be not added or can be added to the total weight of 0.001%-5%. Appropriate formula can be prepared by selecting the buffer and the antioxidant, and adding the content of the following ingredients: antioxidant of 0.01M-1M selected from a group including vitamin C, sodium bisulfite, vitamin A, vitamin E, flavonoids, polyphenols, Ethylenediaminetetraacetic acid (EDTA), Diethylenetriaminepentaacetic acid (DTPA), and NTA-Nitrilotriacetate acid (NTA); and/or buffer solution of 0.01M-1M selected from a group including acetic buffer, citrate buffer, phosphate buffer, acetate buffer, carbonate buffer, ascorbic acid buffer, and triethanolamine buffer with adjustment of the pH values ranged 4.0-9.0. A stable formula can be obtained by adding 0.01% citrate buffer and 0.5% sodium bisulfite with a pH value of 4.5. […]
Before sampling biological sample, wipe the fingertips with alcohol cotton. […] In addition, the potential of this readout can be transmitted to the others including medical practitioners through Bluetooth or similar connection through a mobile phone or computer. […]

[3] = Intravenous injection galactose GSP test (blood galactose after intravenous galactose); format: in vivo; conditions: human, plasma, 0.5 g/kg, average ± standard error
Protocol: The conventional detection method is used for intravenous injection of 0.5 g/kg galactose after fasting for 8 hours, and measured the galactose concentration in plasma after 60 minutes (Tang H. S. et al. (1992) Digestion, 52:222-231; Ranek L. et al. (1983) Clin. Physiol. 3:173-178). The measurement method comprises: drawing a measurement curve according to a relationship between different concentrations of standard galactose solutions and light absorption values thereof; adding HClO4 in the extracted blood and shaking for mixing, then taking supernatant by centrifugation; adding KOH into the supernatant and shaking for mixing, then taking supernatant by centrifugation again; and then adding galactose dehydrogenase into the supernatant and placing in a dark room for 60 minutes to avoid color reaction inaccuracy for preparing of a specimen and measuring the light absorption value thereof; and finally finding the concentration value by the measurement curve. However, the detection process is complicated and time-consuming, and requires using a variety of medicaments. Therefore, it takes lengthy procedure to learn the detecting result.
The oral administration galactose OGSP values of the subjects in the liver function normal group are in the range 318±27 μg/ml (average±standard error) with the minimum value 18 μg/ml and maximum value 887 μg/ml. […] The oral administration galactose OGSP values of the subjects in the liver function severely impaired group are in the range 777±48 μg/ml with the minimum value 293 μg/ml and maximum value 1499 μg/ml. […] Particularly, the oral administration galactose OGSP value is higher than the intravenous injection galactose GSP value. […] The oral administration galactose OGSP values of the subjects in the liver function severely impaired group are mainly in the range of 681-873 μg/ml (average+2*standard error). […] Therefore, further liver function tests should be taken in the subjects whose OGSP value is greater than 370 μg/ml. In additional to intravencous injection, similar results were obtained by other injection or other administration ways.

[4] = average ± standard error, literature values, cited from earlier work

SMILES: NCC(=O)O [Glycine, glycine]
- suitability as stabilizer in the system (galactose dehydrogenase [1]): not suitable

SMILES: OC[C@H]1O[C@H](O[C@H]2O[C@H](CO)[C@@H](O)[C@H](O)[C@H]2O)[C@H](O)[C@@H](O)[C@@H]1O [Trehalose, trehalose]
- galactose-dependent electrochemical signal of GD-based biosensor (galactose dehydrogenase [2]): successfully preserved the activity of enzyme

SMILES: OC[C@H]1O[C@@](CO)(O[C@H]2O[C@H](CO)[C@@H](O)[C@H](O)[C@H]2O)[C@@H](O)[C@@H]1O [Sucrose, sucrose]
- suitability as stabilizer in the system (galactose dehydrogenase [1]): not suitable

SMILES: OC[C@@H](O)[C@@H](O)[C@H](O)[C@H](O)CO [Mannitol, mannitol]
- suitability as stabilizer in the system (galactose dehydrogenase [1]): not suitable

- concentration at 60 min (clinical; OGSP maximum value): 887 µg/mL
- concentration at 60 min (clinical; OGSP values mainly in the range): 510 to 670 µg/mL
- concentration at 60 min ([3]; Mild or moderate impairment of liver function (N = 31)): 359 ± 10 µg/mL
- concentration at 60 min ([3]; Normal liver function (N = 56)): 174 ± 8 µg/mL
- concentration at 60 min ([3]; Severe impairment of liver function (N = 40)): 667 ± 29 µg/mL
SMILES: O=C[C@H](O)[C@@H](O)[C@@H](O)[C@H](O)CO [galactose]
- IV GSP, Digestion 1992; 52: 222-231 ([4]; Mild or moderate impairment of liver function): 423 ± 26.0 µg/mL
- IV GSP, Digestion 1992; 52: 222-231 ([4]; Normal liver function): 247 ± 16.5 µg/mL
- IV GSP, Digestion 1992; 52: 222-231 ([4]; Severe impairment of liver function): 630 ± 41.0 µg/mL
